Laboratory results taken from patent publication US8410117B2, “Imidazopyrimidine derivatives” (Hoffmann-La Roche Inc., priority 2010, dated 2013).

Biological target: T1, human PDE10A (Homo sapiens, UniProt Q9Y233)
T1 construct: The human PDE10A full length assay; purchased Enzo Life Science, Lausen, Switzerland SE-534
Assay: human PDE10A full length Scintillation Proximity Assay (SPA)
Assay type: biochemical
Details: 50 nM cGMP and 50 nM [3H]-cGMP, 20 minutes at room temperature; read-out: PDE10A inhibition IC50
Outline: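 Full-length enzyme at 3.75 ng/well in 20 mM HEPES pH 7.5, 10 mM MgCl2, 0.05 mg/ml BSA, with 50 nM cGMP plus 50 nM [3H]-cGMP substrate, 20 min at room temperature. Stopped with YSi-SPA beads in zinc sulphate and counted by scintillation. IC50 from inhibitor concentration series; no-enzyme wells define background.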

T1 sequence (Q9Y233 1-779 isoform Q9Y233-1): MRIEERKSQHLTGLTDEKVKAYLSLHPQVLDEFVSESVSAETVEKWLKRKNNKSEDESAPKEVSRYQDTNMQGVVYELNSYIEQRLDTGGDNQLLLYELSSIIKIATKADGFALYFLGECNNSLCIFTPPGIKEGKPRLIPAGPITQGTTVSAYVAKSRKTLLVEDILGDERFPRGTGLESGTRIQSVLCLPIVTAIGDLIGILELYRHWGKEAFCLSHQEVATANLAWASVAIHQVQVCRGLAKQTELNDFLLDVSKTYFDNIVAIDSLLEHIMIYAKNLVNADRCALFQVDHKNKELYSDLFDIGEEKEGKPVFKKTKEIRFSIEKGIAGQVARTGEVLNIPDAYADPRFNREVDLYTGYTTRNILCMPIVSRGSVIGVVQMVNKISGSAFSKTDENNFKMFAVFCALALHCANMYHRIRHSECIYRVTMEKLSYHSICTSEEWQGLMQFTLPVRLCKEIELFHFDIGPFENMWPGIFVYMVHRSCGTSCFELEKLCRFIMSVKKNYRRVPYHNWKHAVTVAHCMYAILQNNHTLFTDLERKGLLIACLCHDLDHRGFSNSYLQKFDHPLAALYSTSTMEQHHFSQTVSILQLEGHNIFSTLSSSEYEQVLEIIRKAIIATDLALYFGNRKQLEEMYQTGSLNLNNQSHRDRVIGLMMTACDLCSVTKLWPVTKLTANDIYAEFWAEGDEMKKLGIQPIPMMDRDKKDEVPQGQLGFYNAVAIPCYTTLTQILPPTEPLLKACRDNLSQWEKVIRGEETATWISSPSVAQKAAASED

| IC50 [nM] | Compound |
| --- | --- |
| 5.2 | CCN(C)C(=O)c1cnn(C)c1C(=O)Nc1ccn2cc(-c3cccc(OCF)c3)nc2n1 [Example 86, N-4-Ethyl-N5-(2-(3-(fluoromethoxy)phenyl)imidazo[1,2-a]pyrimidin-7-yl)-N4,1-dimethyl-1H-pyrazole-4,5-dicarboxamide] |
| 951 | O=C(Nc1ccn2cc(-c3ccccc3)nc2n1)c1ccno1 [Example 2, Isoxazole-5-carboxylic acid (2-phenyl-imidazo[1,2-a]pyrimidin-7-yl)-amide] |
| 260 | Cn1ncc(C(=O)NCc2cn3ccccc3n2)c1C(=O)Nc1ccn2cc(-c3ccccc3)nc2n1 [Example 149, N4-(imidazo[1,2-a]pyridin-2-ylmethyl)-1-methyl-N5-(2-phenylimidazo[1,2-a]pyrimidin-7-yl)-1H-pyrazole-4,5-dicarboxamide] |
| 6.3 | O=C(Nc1ccn2cc(-c3ccccc3)nc2n1)c1nc(C2CC2)ccc1Nc1cncnc1 [Example 77, 6-Cyclopropyl-3-(pyrimidin-5-ylamino)-pyridine-2-carboxylic acid (2-phenyl-imidazo[1,2-a]pyrimidin-7-yl)-amide] |
| 989 | CC(C)c1noc(CNC(=O)c2cnn(C)c2C(=O)Nc2ccn3cc(-c4ccccc4)nc3n2)n1 [Example 171, N4-((3-isopropyl-1,2,4-oxadiazol-5-yl)methyl)-1-methyl-N5-(2-phenylimidazo[1,2-a]pyrimidin-7-yl)-1H-pyrazole-4,5-dicarboxamide] |
| 117 | Cn1ncc(C(=O)N2CCOCC2c2cccnc2)c1C(=O)Nc1ccn2cc(-c3ccccc3)nc2n1 (stereo not shown) [Example 137, 1-methyl-N-(2-phenylimidazo[1,2-a]pyrimidin-7-yl)-4-(3-(pyridin-3-yl)morpholine-4-carbonyl)-1H-pyrazole-5-carboxamide] |
| 2.8 | CCN(C)C(=O)c1cnn(CC)c1C(=O)Nc1ccn2cc(-c3ccccc3)nc2n1 [Example 73, 2-Ethyl-2H-pyrazole-3,4-dicarboxylic acid 4-(ethyl-methyl-amide) 3-[(2-phenyl-imidazo[1,2-a]pyrimidin-7-yl)-amide]] |
| 43.3 | CN(CCOCCF)C(=O)c1cnn(C)c1C(=O)Nc1ccn2cc(-c3ccccc3)nc2n1 [Example 106, 2-Methyl-2H-pyrazole-3,4-dicarboxylic acid 4-{[2-(2-fluoro-ethoxy)-ethyl]-methyl-amide}3-[(2-phenyl-imidazo[1,2-a]pyrimidin-7-yl)-amide]] |
| 11.5 | Cn1cc(C(=O)Nc2ccn3cc(-c4ccccc4)nc3n2)c(C(=O)N2CCC2)n1 [Example 66, 3-(Azetidine-1-carbonyl)-1-methyl-1H-pyrazole-4-carboxylic acid (2-phenyl-imidazo[1,2-a]pyrimidin-7-yl)-amide] |
| 148 | CC(NC(=O)c1cnn(C)c1C(=O)Nc1ccn2cc(-c3ccccc3)nc2n1)c1cccnc1 (stereo not shown) [Example 139, 1-methyl-N5-(2-phenylimidazo[1,2-a]pyrimidin-7-yl)-N4-(1-(pyridin-3-yl)ethyl)-1H-pyrazole-4,5-dicarboxamide] |
| 33.1 | Cn1ncc(C(=O)N2CCOCC2)c1C(=O)Nc1ccn2cc(-c3ccccc3)nc2n1 [Example 30, 2-Methyl-4-(morpholine-4-carbonyl)-2H-pyrazole-3-carboxylic acid (2-phenyl-imidazo[1,2-a]pyrimidin-7-yl)-amide] |
| 11.2 | CN(C)C(=O)c1cnn(C)c1C(=O)Nc1ccn2cc(-c3cccc(F)c3)nc2n1 [Example 94, 2-Methyl-2H-pyrazole-3,4-dicarboxylic acid 4-dimethylamide 3-{[2-(3-fluoro-phenyl)-imidazo[1,2-a]pyrimidin-7-yl]amide}] |
| 22 | COCCN(C)C(=O)c1cnn(C)c1C(=O)Nc1ccn2cc(-c3cccc(OC)c3)nc2n1 [Example 101, 2-Methyl-2H-pyrazole-3,4-dicarboxylic acid 4-[(2-methoxy-ethyl)-methyl-amide]3-{[2-(3-methoxy-phenyl)-imidazo[1,2-a]pyrimidin-7-yl]amide}] |
